Earlier results on one substance are cited in patent US9326457B2, “Micro layering pest control solution” (DAIRY SOLUTIONS, INC, priority 2013, dated 2016).

The conditions of this series: natural pyrethrum, degrades very quickly; short duration application.

For Pyrethrin, the half life entry was “about 30 mins”.
